Laboratory results: article PMC5030359, “Cathelicidin Antimicrobial Peptides with Reduced Activation of Toll-Like Receptor Signaling Have Potent Bactericidal Activity against Colistin-Resistant Bacteria” (mBio, 2016)
Values after ≈ are worked out from the molar mass of the structure shown. Values joined by “and” are separate entries in the source; they are usually repeats but may differ in a detail not shown here. Identical values can stand only once. Like-named read-outs stand apart in the source and are kept apart here. Bridge positions count the residues as written; N and C are the ends. Square brackets hold non-standard residues; d marks the D form. Peptide text beside a SMILES is read from it. * marks the point of attachment. X1 = CC[C@H](C)CCCCC(=O)*; Dab = NCC[C@H](N)C(=O)O

Tests used:
Enterobacter cloacae = conditions: strains with MIC of 16 µg/ml or less / strains tested
Protocol: (§1) The bacterial species tested are Klebsiella pneumoniae (K. p.), Serratia marcescens (S. m.), Enterobacter cloacae (E. cl.), Escherichia coli (E. c.), and Pseudomonas aeruginosa (P. a.). MICs were determined by the microdilution assay. […] The results are the median values of at least three independent assays.
(§2) Antimicrobial activity was determined using the broth microdilution method based on the guidelines of the Clinical and Laboratory Standards Institute (CLSI) ([39]), using cation-adjusted Mueller-Hinton broth (CAMHB) as the testing medium. Reference Gram-positive and Gram-negative bacteria were tested, including both enteric and Pseudomonas aeruginosa strains. Each MIC was determined in at least three independent assays.

Klebsiella pneumoniae = conditions: for # strains inhibited at 16 µg/ml peptide K. p.: strains with MIC of 16 µg/ml or less / strains tested
Protocol: as §1, §2

Serratia marcescens = conditions: for # strains inhibited at 16 µg/ml peptide S. m.: strains with MIC of 16 µg/ml or less / strains tested
Protocol: as §1, §2

E. cloacae 4080 = test: Bacterial killing, colony formation (CFU); format: cell-based, Enterobacter cloacae; conditions: 25 µg/ml kanamycin sulfate, E. cloacae 4080
Protocol: The number of CFU of E. cloacae 4080 were quantified as a function of time of incubation with a 2 µM concentration of the individual peptides. In the reactions with kanamycin (Kan), 25 µg/ml of kanamycin sulfate was used. […] The initial inoculum was 10^6 CFU in LB.

K. pneumoniae = test: Bacterial killing, colony formation (CFU); format: cell-based, Klebsiella pneumoniae; conditions: 2 µM; Fig. 5C (K. pneumoniae 59) and data not shown

Protocol for 19 Gram-negative strains: (A) Sequences of the cathelicidins, the numbers of bacterial strains killed, and hRBC lysis by the cathelicidins. […] The bacterial species tested are Klebsiella pneumoniae (K. p.), Serratia marcescens (S. m.), Enterobacter cloacae (E. cl.), Escherichia coli (E. c.), and Pseudomonas aeruginosa (P. a.). MICs were determined by the microdilution assay. […] The results are the median values of at least three independent assays.
We tested a panel of cathelicidins for inhibiting growth of 19 Gram-negative strains from the family Enterobacteriaceae and the nonfermentative bacteria. The species tested were Enterobacter cloacae ([2]), Escherichia coli ([5]), Klebsiella pneumoniae ([4]), Pseudomonas aeruginosa ([4]), and Serratia marcescens ([4]). All of the strains selected have been characterized for their antibiotic resistance profiles.
as §2
Protocol for E. faecalis: as §2
Protocol for Escherichia coli: as §1, §2
Protocol for Pseudomonas aeruginosa: as §1, §2
Protocol for S. aureus: as §2

| Structure (SMILES) | # strains inhibited at 16 µg/ml peptide E. cl. (Enterobacter cloacae) | # strains inhibited at 16 µg/ml peptide E. c. (Escherichia coli) | # strains inhibited at 16 µg/ml peptide K. p. (Klebsiella pneumoniae) | # strains inhibited at 16 µg/ml peptide P. a. (Pseudomonas aeruginosa) | # strains inhibited at 16 µg/ml peptide S. m. (Serratia marcescens) | No. of strains inhibited at 16 µg/ml/total no. of strains (19 Gram-negative strains) | MIC E. faecalis 29212 (E. faecalis) | MIC E. faecalis 51299 (E. faecalis) | MIC S. aureus 25923 (S. aureus) | MIC S. aureus 29213 (S. aureus) | reduction of CFU over time (E. cloacae 4080) | concentration usually required to inhibit growth of S. marcescens strains (Serratia marcescens; S. marcescens strains) | No. of strains inhibited at 16 µg/ml/total no. of strains (19 Gram-negative strains; 19 Gram-negative strains, MIC of 16 µg/ml or less) | fold reduction in CFU, colistin-resistant K. pneumoniae (K. pneumoniae) | MIC K. pneumoniae 59 (Klebsiella pneumoniae; carbapenem-resistant, colistin-resistant clinical isolate (ST258)) | MIC (µM) K. pneumoniae 88 (Klebsiella pneumoniae; carbapenem-resistant, colistin-resistant clinical isolate (ST674), microbroth MIC (SD)) |
| --- | --- | --- | --- | --- | --- | --- | --- | --- | --- | --- | --- | --- | --- | --- | --- | --- |
| CC[C@H](C)[C@H](NC(=O)[C@@H](NC(=O)[C@@H]1CCCN1C(=O)[C@H](CO)NC(=O)[C@H](CC(C)C)NC(=O)[C@H](CCCCN)NC(=O)[C@H](CCCCN)NC(=O)[C@H](Cc1ccccc1)NC(=O)[C@H](CC(C)C)NC(=O)[C@H](CCCCN)NC(=O)[C@H](CCCCN)NC(=O)[C@H](Cc1ccccc1)NC(=O)[C@H](CCCCN)NC(=O)[C@H](CCCCN)NC(=O)[C@H](CCCNC(=N)N)NC(=O)[C@H](CC(C)C)NC(=O)[C@H](CCCNC(=N)N)NC(=O)[C@H](CCCCN)NC(=O)[C@H](Cc1ccccc1)NC(=O)[C@H](CCCNC(=N)N)NC(=O)CN)C(C)C)C(=O)N1CCC[C@H]1C(=O)N[C@@H](CC(C)C)C(=O)N[C@@H](CC(C)C)C(=O)N[C@@H](Cc1c[nH]cn1)C(=O)N[C@@H](CC(C)C)C(=O)NCC(=O)O [BMAP-27A] (H-GRFKRLRKKFKKLFKKLSPVIPLLHLG-OH; N-terminus and C-terminus assumed) | 2/2 | 6/6 | 4/4 | 4/4 | 3/3 | 19/19 | >32 µg/mL | >32 µg/mL | 16 µg/mL (≈ 4.92 µM) | 16 µg/mL (≈ 4.92 µM) |  |  |  |  |  |  |
| NC[C@H]1O[C@H](O[C@H]2[C@H](O)[C@@H](O[C@H]3O[C@H](CO)[C@@H](O)[C@H](N)[C@H]3O)[C@H](N)C[C@@H]2N)[C@H](O)[C@@H](O)[C@@H]1O [kanamycin] |  |  |  |  |  |  |  |  |  |  | only after a 2-h incubation |  |  |  |  |  |
| CC[C@H](C)[C@H](NC(=O)[C@H](CCCCN)NC(=O)[C@H](CCC(=O)O)NC(=O)[C@H](CCCCN)NC(=O)[C@H](CO)NC(=O)[C@H](CCCCN)NC(=O)[C@H](CCCNC(=N)N)NC(=O)[C@H](Cc1ccccc1)NC(=O)[C@H](Cc1ccccc1)NC(=O)[C@H](CC(=O)O)NC(=O)CNC(=O)[C@H](CC(C)C)NC(=O)[C@@H](N)CC(C)C)C(=O)NCC(=O)N[C@@H](CCCCN)C(=O)N[C@@H](CCC(=O)O)C(=O)N[C@@H](Cc1ccccc1)C(=O)N[C@@H](CCCCN)C(=O)N[C@@H](CCCNC(=N)N)C(=O)N[C@H](C(=O)N[C@H](C(=O)N[C@@H](CCC(N)=O)C(=O)N[C@@H](CCCNC(=N)N)C(=O)N[C@H](C(=O)N[C@@H](CCCCN)C(=O)N[C@@H](CC(=O)O)C(=O)N[C@@H](Cc1ccccc1)C(=O)N[C@@H](CC(C)C)C(=O)N[C@@H](CCCNC(=N)N)C(=O)O)[C@@H](C)CC)C(C)C)[C@@H](C)CC [LL-29] (H-LLGDFFRKSKEKIGKEFKRIVQRIKDFLR-OH; N-terminus and C-terminus assumed) | 1/2 | 2/6 | 0/4 | 0/4 | 0/3 | 4/19 |  |  |  |  |  |  |  |  |  |  |
| CC[C@H](C)[C@H](NC(=O)[C@@H](NC(=O)[C@@H]1CCCN1C(=O)[C@H](CO)NC(=O)[C@H](CC(C)C)NC(=O)[C@H](CCCCN)NC(=O)[C@H](CCCCN)NC(=O)[C@H](Cc1ccccc1)NC(=O)[C@H](CC(C)C)NC(=O)[C@H](CCCCN)NC(=O)[C@H](CCCCN)NC(=O)[C@H](Cc1ccccc1)NC(=O)[C@H](CCCCN)NC(=O)[C@H](CCCCN)NC(=O)[C@H](CCCNC(=N)N)NC(=O)[C@H](Cc1ccccc1)NC(=O)[C@H](CCCNC(=N)N)NC(=O)[C@H](CCCCN)NC(=O)[C@H](Cc1ccccc1)NC(=O)[C@H](CCCNC(=N)N)NC(=O)CN)C(C)C)C(=O)N1CCC[C@H]1C(=O)N[C@@H](CC(C)C)C(=O)N[C@@H](CC(C)C)C(=O)N[C@@H](Cc1c[nH]cn1)C(=O)N[C@@H](CC(C)C)C(=O)NCC(=O)O [BMAP-27] (H-GRFKRFRKKFKKLFKKLSPVIPLLHLG-OH; N-terminus and C-terminus assumed) | 2/2 | 6/6 | 4/4 | 4/4 | 3/3 | 19 and 19/19 | >32 µg/mL | >32 µg/mL | 16 µg/mL (≈ 4.87 µM) | 16 µg/mL (≈ 4.87 µM) |  | 8 µg/mL | ≥ 16 |  |  |  |
| CC[C@H](C)[C@H](NC(=O)[C@H](CCCCN)NC(=O)[C@H](C)NC(=O)[C@H](CCCCN)NC(=O)[C@H](CO)NC(=O)[C@H](CCCCN)NC(=O)[C@H](CCCNC(=N)N)NC(=O)[C@H](Cc1ccccc1)NC(=O)[C@H](Cc1ccccc1)NC(=O)[C@H](C)NC(=O)CNC(=O)[C@H](CC(C)C)NC(=O)[C@@H](N)CC(C)C)C(=O)NCC(=O)N[C@@H](CCCCN)C(=O)N[C@@H](C)C(=O)N[C@@H](Cc1ccccc1)C(=O)N[C@@H](CCCCN)C(=O)N[C@@H](CCCNC(=N)N)C(=O)N[C@H](C(=O)N[C@H](C(=O)N[C@@H](CCC(N)=O)C(=O)N[C@@H](CCCNC(=N)N)C(=O)N[C@H](C(=O)N[C@@H](CCCCN)C(=O)N[C@@H](C)C(=O)N[C@@H](Cc1ccccc1)C(=O)N[C@@H](CC(C)C)C(=O)N[C@@H](CCCNC(=N)N)C(=O)O)[C@@H](C)CC)C(C)C)[C@@H](C)CC [LL-29V2] (H-LLGAFFRKSKAKIGKAFKRIVQRIKAFLR-OH) | 1/2 | 4/6 | 4/4 | 1/4 | 1/3 | 4/19 |  |  |  |  |  |  |  |  |  |  |
| CC[C@H](C)CCCCC(=O)N[C@@H](CCN)C(=O)N[C@H](C(=O)N[C@@H](CCN)C(=O)N[C@H]1CCNC(=O)[C@H]([C@@H](C)O)NC(=O)[C@H](CCN)NC(=O)[C@H](CCN)NC(=O)[C@H](CC(C)C)NC(=O)[C@@H](CC(C)C)NC(=O)[C@H](CCN)NC1=O)[C@@H](C)O [Colistin, colistin] (X1-[Dab]T[Dab][Dab][Dab][dL]L[Dab][Dab]T; lactam 4-C (inferred); N-terminus assumed) |  |  |  |  |  |  |  |  |  |  |  |  |  | 1.4 fold | 6.4 µM (≈ 7.48 µg/mL) | 6.4 µM (≈ 7.48 µg/mL) |
| CC[C@H](C)[C@H](NC(=O)[C@@H](NC(=O)[C@@H]1CCCN1C(=O)[C@H](CO)NC(=O)[C@H](CC(C)C)NC(=O)[C@H](CCCCN)NC(=O)[C@H](CCCCN)NC(=O)[C@H](C)NC(=O)[C@H](CC(C)C)NC(=O)[C@H](CCCCN)NC(=O)[C@H](CCCCN)NC(=O)[C@H](CC(C)C)NC(=O)[C@H](CCCCN)NC(=O)[C@H](CCCCN)NC(=O)[C@H](CCCNC(=N)N)NC(=O)[C@H](CC(C)C)NC(=O)[C@H](CCCNC(=N)N)NC(=O)[C@H](CCCCN)NC(=O)[C@H](C)NC(=O)[C@H](CCCNC(=N)N)NC(=O)CN)C(C)C)C(=O)N1CCC[C@H]1C(=O)N[C@@H](CC(C)C)C(=O)N[C@@H](CC(C)C)C(=O)N[C@@H](Cc1c[nH]cn1)C(=O)N[C@@H](CC(C)C)C(=O)NCC(=O)O [BMAP-27C] (H-GRAKRLRKKLKKLAKKLSPVIPLLHLG-OH) | 2/2 | 6/6 | 4/4 | 4/4 | 2/3 | 17/19 | >32 µg/mL | >32 µg/mL | >32 µg/mL | 32 µg/mL (≈ 10.4 µM) |  |  |  |  |  |  |
| CC[C@H](C)[C@H](NC(=O)[C@H](CCCCN)NC(=O)[C@H](CCC(=O)O)NC(=O)[C@H](CCCCN)NC(=O)[C@H](CO)NC(=O)[C@H](CCCCN)NC(=O)[C@H](CCCNC(=N)N)NC(=O)[C@H](Cc1ccccc1)NC(=O)[C@H](Cc1ccccc1)NC(=O)[C@H](C)NC(=O)CNC(=O)[C@H](CC(C)C)NC(=O)[C@@H](N)CC(C)C)C(=O)NCC(=O)N[C@@H](CCCCN)C(=O)N[C@@H](C)C(=O)N[C@@H](Cc1ccccc1)C(=O)N[C@@H](CCCCN)C(=O)N[C@@H](CCCNC(=N)N)C(=O)N[C@H](C(=O)N[C@H](C(=O)N[C@@H](CCC(N)=O)C(=O)N[C@@H](CCCNC(=N)N)C(=O)N[C@H](C(=O)N[C@@H](CCCCN)C(=O)N[C@@H](CC(=O)O)C(=O)N[C@@H](Cc1ccccc1)C(=O)N[C@@H](CC(C)C)C(=O)N[C@@H](CCCNC(=N)N)C(=O)O)[C@@H](C)CC)C(C)C)[C@@H](C)CC [LL-29V] (H-LLGAFFRKSKEKIGKAFKRIVQRIKDFLR-OH) | 1/2 | 3/6 | 0/4 | 0/4 | 0/3 | 11/19 |  |  |  |  |  |  |  |  |  |  |
